The target in assay [1] is T1, human NK3 receptor (Homo sapiens, UniProt P29371).
T1 construct: expressed in transfected cells; membranes prepared from them
T1 sequence (P29371 1-465): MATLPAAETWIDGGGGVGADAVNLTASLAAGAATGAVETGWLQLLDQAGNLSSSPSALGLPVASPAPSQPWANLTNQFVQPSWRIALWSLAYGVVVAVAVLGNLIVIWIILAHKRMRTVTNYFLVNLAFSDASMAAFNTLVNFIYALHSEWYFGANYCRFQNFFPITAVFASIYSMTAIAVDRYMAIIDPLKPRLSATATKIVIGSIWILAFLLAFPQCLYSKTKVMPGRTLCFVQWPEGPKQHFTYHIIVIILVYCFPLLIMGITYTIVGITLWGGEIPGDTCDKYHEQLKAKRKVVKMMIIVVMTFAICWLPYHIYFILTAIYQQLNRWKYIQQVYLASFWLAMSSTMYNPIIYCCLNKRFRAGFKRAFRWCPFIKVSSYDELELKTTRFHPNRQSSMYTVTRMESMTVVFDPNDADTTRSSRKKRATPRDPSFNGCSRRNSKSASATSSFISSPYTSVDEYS
As to the kind of experiment: NK3 receptor efficacy and potency assay (FLIPR Calcium 4). It counts as cell-based. As to conditions: read-out: Potency (cIC50/nM). Here is the method: Example 13 NK3 receptor efficacy and potency assay
BHK cells stably expressing the human NK3 receptor were seeded in 100 µl media in black walled clear-base 96-wells plates (Costar) aiming at a confluency of 95-100% at the day of assay. The assay was performed according to the FLIPR Calcium 4 Assay kit (Molecular Devices). At the day of the assay, the media was removed and the cells were washed once with the HBSS buffer (Hanks BSS buffer, pH 7,4 containing 20 mM Hepes) before 100 µl of a solution of the calcium assay reagent dissolved in the HBSS buffer containing 2,5 mM probinicid was added to the cells. The plates were incubated for 60 min at 34°C, 10% CO2 before use in the FLIPR for examination of fluorescence.
For efficacy and potency evaluation of compounds, these were diluted in HBSS buffer prior to test. For test of agonist activity, 25 µl of the diluted compound solution was added and the plate was analyzed for 5 minutes in the FLIPR. For test of antagonist activity, the plate was incubated for another 45 minutes before addition of 25 µl of the EC85 concentration ofNKB (app. 4 nM) as described above. The plates were subsequently analyzed for 5 minutes before the assay was terminated. The maximal increase in fluorescence over background following each ligand addition was determined.

Assay [2] addresses T1, human NK3 receptor. Kind of assay: NK3 receptor binding assay (SPA-based competition binding with 125I-NKB). Note: competition with app 0.02 nM 125I-NKB. Particulars: read-out: Affinity (Ki/nM). Here is the method:
Example 12 NK3 receptor binding assay
Membranepreparation: BHK cells stably expressing the human NK3 receptor were seeded in harvesting plates in Dulbeccos MEM containing GlutaMax (862 mg/l), 1mM sodium pyruvate, 10% fetal calf serum, 1% Pen/Strep, 1 mg/ml G418 and were grown at 34 °C in a humidified atmosphere containing 10% CO2. To increase receptor expression, 10 µM trichotatin A was added to the media 24 hours before harvest of the cells at a confluency of app 90%. Prior to the harvesting, the cells were washed twice with PBS without Mg^2+ og Ca^2+ and subsequently scrapped of in 10 ml PBS pr harvesting plate. The cells suspension were centrifuged at 1500xG in three minutes before resuspension in 15 mM Tris-HCl pH 7,5 buffer containing 2 mM MgCl2; 0,3 mM EDTA and 1 mM EGTA (buffer A). The cell suspention was homogenised and subsequently centrifuged at 40000xG in 30 minutes. The membrane-pellet was resuspended in buffer A containing 250 mM sucrose, alliquoted and stored at ― 80 °C.
Affinity assay description: The assay was performed as a SPA-based competition-binding assay in a 50 mM Tris pH 7.4 assay buffer containing 120 mM NaCl, 3 mM MnCl2, 40 µg/ml bacitracin, 2 µg/ml Chymostatin, 1 µg/ml Phosphoramidon and 4 µg/ml Leupeptin. […] The assay plate was subsequently under agitation incubated for 90 min at RT. The plate was centrifugated 10 minutes at 500xG and counted in a topcounter 5 minuttes pr well.
The total binding, which comprised less than 5 % of added radioligand, was defined using assay buffer whereas the non-specific binding was defined in the presence of 1 µM osanetant. The non-specific binding constituted app 5 % of the total binding.

Consider `Cc1c(C(=O)N[C@H](c2cccc(F)c2)C2CC2)c2cccc(F)c2c(=O)n1[C@@H]1CCNC1` [Example 5g, 8-Fluoro-3-methyl-1-oxo-2-(R)-1-pyrrolidin-3-yl-1,2-dihydro-isoquinoline-4-carboxylic acid [(S)-cyclopropyl-(3-fluoro-phenyl)-methyl]-amide], for which the IC50 at human NK3 receptor [1] is 910 nM.

In the case of `COCCn1c(C)c(C(=O)N[C@H](c2cccc(F)c2)C2CC2)c2cccc(F)c2c1=O` [Example 4f, 8-Fluoro-2-(2-methoxy-ethyl)-3-methyl-1-oxo-1,2-dihydro-isoquinoline-4-carboxylic acid [(S)-cyclopropyl-(3-fluoro-phenyl)-methyl]-amide], the Ki at human NK3 receptor [2] amounted to 76 nM. In addition, the IC50 on human NK3 receptor [1] was 230 nM. On the same counts, the results for `CCOn1c(C)c(C(=O)N[C@H](c2cccc(F)c2)C2CCC2)c2cccc(F)c2c1=O` [Example 4t, 2-Ethoxy-8-fluoro-3-methyl-1-oxo-1,2-dihydro-isoquinoline-4-carboxylic acid [(S)-cyclobutyl-(3-fluoro-phenyl)-methyl]-amide] are 68 nM and 180 nM. For `CC[C@H](NC(=O)c1c(C)n(NCC(C)(C)C)c(=O)c2ccccc12)c1ccccc1` [Example 2e, 2-(2,2-Dimethyl-propylamino)-3-methyl-1-oxo-1,2-dihydro-isoquinoline-4-carboxylic acid ((S)-1-phenyl-propyl)-amide], on human NK3 receptor [2], the Ki came out at 180 nM. Further, the IC50 at human NK3 receptor [1] came out at 580 nM. Consider `Cc1c(C(=O)N[C@H](c2cccc(F)c2)C2CCC2)c2cccc(F)c2c(=O)n1C[C@H]1CCCN1` [Example 5d, 8-Fluoro-3-methyl-1-oxo-2-(R)-1pyrrolidin-2-ylmethyl-1,2-dihydro-isoquinoline-4-carboxylic acid [(S)-cyclobutyl-(3-fluoro-phenyl)-methyl]-amide], for which the Ki at human NK3 receptor [2] was 25 nM. Further, the IC50 at human NK3 receptor [1] came to 16 nM. On the same counts, the results for `Cc1c(C(=O)N[C@H](c2cccc(F)c2)C2CC2)c2cccc(F)c2c(=O)n1C[C@@H]1CCCN1C` [Example 7a, 8-Fluoro-3-methyl-2-((S)-1-methyl-pyrrolidin-2-ylmethyl)-1-oxo-1,2-dihydro-isoquinoline-4-carboxylic acid [(S)-cyclopropyl-(3-fluoro-phenyl)-methyl]-amide] are 78 nM and 130 nM. For the molecule `Cc1c(C(=O)N[C@H](c2ccccc2)C2CC2)c2cccc(F)c2c(=O)n1NCC(C)C` [Example 2j, 8-Fluoro-2-isobutylamino-3-methyl-1-oxo-1,2-dihydro-isoquinoline-4-carboxylic acid ((S)-cyclopropyl-phenyl-methyl)-amide], on human NK3 receptor [2], the Ki came to 23 nM.

As to `Cc1c(C(=O)NC(c2cccc(F)c2)C2CCC2)c2cccc(F)c2c(=O)n1C1CCOC1` [Example 4r, 8-Fluoro-3-methyl-1-oxo-2-(S)-tetrahydro-furan-3-yl-1,2-dihydro-isoquinoline-4-carboxylic acid [(S)-cyclobutyl-(3-fluoro-phenyl)-methyl]-amide], the IC50 at human NK3 receptor [1] amounted to 390 nM. Consider `CCCn1c(CN2CCCC2=O)c(C(=O)N[C@H](c2cccc(F)c2)C2CC2)c2cccc(F)c2c1=O` [Example 6e, 8-Fluoro-1-oxo-3-(2-oxo-pyrrolidin-1-ylmethyl)-2-propyl-1,2-dihydro-isoquinoline-4-carboxylic acid [(S)-cyclopropyl-(3-fluoro-phenyl)-methyl]-amide], for which, on human NK3 receptor [2], the Ki amounted to 9.8 nM. Also, the IC50 on human NK3 receptor [1] turned out to be 21 nM. As to `CCNn1c(C)c(C(=O)N[C@H](c2cccc(F)c2)C2CC2)c2cccc(F)c2c1=O` [Example 2p, 2-Ethylamino-8-fluoro-3-methyl-1-oxo-1,2-dihydro-isoquinoline-4-carboxylic acid [(S)-cyclopropyl-(3-fluoro-phenyl)-methyl]-amide], the Ki on human NK3 receptor [2] was found to be 12 nM. In addition, the IC50 at human NK3 receptor [1] was 27 nM. For the molecule `CC[C@H](NC(=O)c1c(C)n(NCC(C)C)c(=O)c2ccccc12)c1ccccc1` [Example 2d, 2-Isobutylamino-3-methyl-1-oxo-1,2-dihydro-isoquinoline-4-carboxylic acid ((S)-1-phenyl-propyl)-amide], on human NK3 receptor [2], the Ki worked out at 46 nM. The IC50 on human NK3 receptor [1] worked out at 230 nM.

`CCNn1c(CN2CCCC2=O)c(C(=O)N[C@H](c2cccc(F)c2)C2CC2)c2cccc(F)c2c1=O` [Example 2r, 2-Ethylamino-8-fluoro-1-oxo-3-(2-oxo-pyrrolidin-1-ylmethyl)-1,2-dihydro-isoquinoline-4-carboxylic acid [(S)-cyclopropyl-(3-fluoro-phenyl)-methyl]-amide]: the Ki on human NK3 receptor [2] was found to be 6.8 nM. Regarding `CCCn1c(CN2CCNCC2)c(C(=O)N[C@H](c2cccc(F)c2)C2CC2)c2cccc(F)c2c1=O` [Example 6a, 8-Fluoro-1-oxo-3-piperazin-1-ylmethyl-2-propyl-1,2-dihydro-isoquinoline-4-carboxylic acid [(S)-cyclopropyl-(3-fluoro-phenyl)-methyl]-amide], the Ki on human NK3 receptor [2] came to 13 nM. In addition, the IC50 on human NK3 receptor [1] stood at 7 nM. On the same counts, the results for `CC[C@H](NC(=O)c1c(C)n(C2CCCC2)c(=O)c2ccccc12)c1ccccc1` [Example 1a, 2-Cyclopentyl-3-methyl-1-oxo-1,2-dihydro-isoquinoline-4-carboxylic acid ((S)-1-phenylpropyl)-amide] are 310 nM and 570 nM. For `Cc1c(C(=O)N[C@H](c2cccc(F)c2)C2CCC2)c2cccc(F)c2c(=O)n1CCO` [Example 4p, 8-Fluoro-2-(2-hydroxy-ethyl)-3-methyl-1-oxo-1,2-dihydro-isoquinoline-4-carboxylic acid [(S)-cyclobutyl-(3-fluoro-phenyl)-methyl]-amide], the Ki at human NK3 receptor [2] amounted to 160 nM. Moreover, the IC50 on human NK3 receptor [1] was found to be 380 nM. As to `O=C(N[C@H](c1cccc(F)c1)C1CC1)c1c(CN2CCCC2=O)n(CCC(F)(F)F)c(=O)c2c(F)cccc12` [Example 4l, 8-Fluoro-1-oxo-3-(2-oxo-pyrrolidin-1-ylmethyl)-2-(3,3,3-trifluoro-propyl)-1,2-dihydro-isoquinoline-4-carboxylic acid [(S)-cyclopropyl-(3-fluoro-phenyl)-methyl]-amide], the Ki at human NK3 receptor [2] was 9.3 nM. The IC50 at human NK3 receptor [1] is 10 nM. As for `CCCNn1c(C)c(C(=O)N[C@H](c2cccc(F)c2)C2CC2)c2cccc(F)c2c1=O` [Example 2q, 8-Fluoro-3-methyl-1-oxo-2-propylamino-1,2-dihydro-isoquinoline-4-carboxylic acid [(S)-cyclopropyl-(3-fluoro-phenyl)-methyl]-amide], at human NK3 receptor [2], the Ki came out at 7.4 nM.

Take `Cc1c(C(=O)N[C@H](c2cccc(F)c2)C2CC2)c2cccc(F)c2c(=O)n1[C@@H]1CCN(C)C1` [Example 7i, 8-Fluoro-3-methyl-2-((R)-1-methyl-pyrrolidin-3-yl)-1-oxo-1,2-dihydro-isoquinoline-4-carboxylic acid [(S)-cyclopropyl-(3-fluoro-phenyl)-methyl]-amide]: on human NK3 receptor [2], the Ki stood at 90 nM. For the same molecule, the IC50 on human NK3 receptor [1] amounted to 660 nM. Regarding `CC[C@H](NC(=O)c1c(C)n(CCSC)c(=O)c2ccccc12)c1ccccc1` [Example 1q, 3-Methyl-2-(2-methylsulfanyl-ethyl)-1-oxo-1,2-dihydro-isoquinoline-4-carboxylic acid ((S)-1-phenyl-propyl)-amide], the Ki at human NK3 receptor [2] was found to be 200 nM. Also, the IC50 at human NK3 receptor [1] came to 440 nM.

(Values after patent EP2342182B1 (H. Lundbeck A/S, priority 2008, dated 2010).)
